Results as given in patent US4433147A, “Process for preparing 10-deazaminopterins” (priority 1982, dated 1984).
Values joined by “and” are separate entries in the source; they are usually repeats but may differ in a detail not shown here. Equal values may be shown once. Read-outs that look alike come from different tables or passages of the source.

Tests used:
ascites tumor systems = experiment: Ascites tumor systems, summary of Examples 10 to 13; type: in vivo, mice; details: all of the ascites tumor systems examined
in vivo = details: read-out: acute LD50
[1] = Plasma and tissue (tumor, small intestine and marrow) pharmacokinetics; type: in vivo; details: for Plasma and tissue pharmacokinetics: small intestine and marrow, dAM versus MTX
carrier in tumor = experiment: membrane transport by carrier in tumor; type: cell-based
L1210 leukemia [2] = experiment: L1210 leukemia in BD (2) F1 female mice, i.p., increase in median life span (Example 8, Table I); details: for Increased life span / Median life span / Weight change: three times per week
Streptococcus faecium = details: DeGraw et al., J. Heterocyclic Chem. 8 105 (1971); cited from earlier work
L1210 leukemia [3] = experiment: L1210 leukemia in BD (2) F1 female mice, i.p., 10-alkyl derivatives (Example 9, Table II); details: for AST / ILS: every two days times five; for antileukemic activity compared with methotrexate: on a similar dosage level
dihydrofolic reductase = details: cited from earlier work
[4] = 6.0 mg/kg oral every 2 days × 5

Text for Ehrlich ascites: (§1) ^1 One dose (s.c.) every 2 days for a total of 5 doses.
(§2) ^2 Toxic animals weigh 13-15 g at death (original weight 20 g).
(§3) MST = Median survival time ± standard deviation.
ILS = Increased life span.
Text for L1210 ascites: ^1 One dose every 2 days for a total of 5 doses.
^2 Animals weigh 13-15 g at death (original weight 20 g).
as §3
ILS = increased life span.
Each dose tested 2 to 4 times.
Text for P815 ascites: as §1, §3
ILS = Increased life span.
Each dosage tested twice.
Text for S180-J ascites: as §1, §2, §3
ILS = Increased life span.
Each dose tested 2 to 3 times.

Nc1nc(N)c2nc(CCc3ccc(C(=O)N[C@@H](CCC(=O)O)C(=O)O)cc3)cnc2n1 [10-deazaminopterin, 10-Deazaminopterin]
activity compared with methotrexate (ascites tumor systems): more active than methotrexate
LD50 (in vivo): 65 mg/kg
persistence of exchangeable drug in tumor ([1]; optimum dosages, dAM over MTX): greater persistence
Plasma and tissue pharmacokinetics [1]: similar
competition for carrier mechanism (carrier in tumor; dAM and MTX): compete for the same carrier mechanism
affinity of carrier in tumor (carrier in tumor; dAM versus MTX): greater affinity
saturability (Km) for influx (carrier in tumor; membrane transport in tumor, dAM versus MTX): favoring greater accumulation of dAM
ILS (increased life span) (S180-J ascites; 3 mg/kg s.c. every 2 days × 5): 8.7%
MST (median survival time) (S180-J ascites; 3 mg/kg s.c. every 2 days × 5): 13.0 ± 1.1 days
ILS (increased life span) (S180-J ascites; 6 mg/kg s.c. every 2 days × 5): 74.8%
MST (median survival time) (S180-J ascites; 6 mg/kg s.c. every 2 days × 5): 21.2 ± 1.7 days
ILS (increased life span) (S180-J ascites; 9 mg/kg s.c. every 2 days × 5): 117.3%
MST (median survival time) (S180-J ascites; 9 mg/kg s.c. every 2 days × 5): 26.3 ± 0.7 days
60 day survivors (S180-J ascites; 12 mg/kg s.c. every 2 days × 5): Two
ILS (increased life span) (S180-J ascites; 12 mg/kg s.c. every 2 days × 5): > 159.6%
MST (median survival time) (S180-J ascites; 12 mg/kg s.c. every 2 days × 5): > 31.4 ± 2.5 days
ILS (increased life span) (S180-J ascites; 18 mg/kg s.c. every 2 days × 5): 54.0%
MST (median survival time) (S180-J ascites; 18 mg/kg s.c. every 2 days × 5): 18.6 ± 2.4 days
long-term survivors (S180-J ascites; against S180, s.c.): long-term survivors
Maximum ILS (S180-J ascites; against S180, s.c., q2d×5): > +160%
Toxic Deaths (S180-J ascites; mouse, in vivo): 0/10 and 0/15 and 7/10
ILS (increased life span) (P815 ascites; 6 mg/kg s.c. every 2 days × 5): 107.6%
MST (median survival time) (P815 ascites; 6 mg/kg s.c. every 2 days × 5): 18.2 ± 1.3 days
ILS (increased life span) (P815 ascites; 9 mg/kg s.c. every 2 days × 5): 116.3%
MST (median survival time) (P815 ascites; 9 mg/kg s.c. every 2 days × 5): 19.0 ± 0.9 days
ILS (increased life span) (P815 ascites; 12 mg/kg s.c. every 2 days × 5): 118.4%
MST (median survival time) (P815 ascites; 12 mg/kg s.c. every 2 days × 5): 19.2 ± 1.2 days
Maximum ILS (P815 ascites; against P815, s.c., q2d×5): +117%
Toxic Deaths (P815 ascites; mouse, in vivo): 0/10
ILS (increased life span) (L1210 ascites; 3 mg/kg oral every 2 days × 5): 77%
MST (median survival time) (L1210 ascites; 3 mg/kg oral every 2 days × 5): 11.7 ± 1.0 days
ILS (increased life span) (L1210 ascites; 3 mg/kg s.c. every 2 days × 5): 108%
MST (median survival time) (L1210 ascites; 3 mg/kg s.c. every 2 days × 5): 13.8 ± 0.7 days
ILS (increased life span) (L1210 ascites; [4]): 122%
MST (median survival time) (L1210 ascites; [4]): 14.7 ± 1.3 days
ILS (increased life span) (L1210 ascites; 6 mg/kg s.c. every 2 days × 5): 131%
MST (median survival time) (L1210 ascites; 6 mg/kg s.c. every 2 days × 5): 15.2 ± 1.5 days
ILS (increased life span) (L1210 ascites; 9 mg/kg s.c. every 2 days × 5): 168%
MST (median survival time) (L1210 ascites; 9 mg/kg s.c. every 2 days × 5): 17.8 ± 0.8 days
ILS (increased life span) (L1210 ascites; 12 mg/kg s.c. every 2 days × 5): 176%
MST (median survival time) (L1210 ascites; 12 mg/kg s.c. every 2 days × 5): 18.2 ± 1.3 days
Maximum ILS (L1210 ascites; against L1210, orally, same dosage and schedule): +122%
Maximum ILS (L1210 ascites; against L1210, s.c., q2d×5): +172%
Maximum ILS (L1210 ascites; ip): +203%
Toxic Deaths (L1210 ascites; mouse, in vivo): 0/10 and 0/15 and 1/15 and 0/20
ILS (increased life span) (Ehrlich ascites; 6 mg/kg s.c. every 2 days × 5): 34.8%
MST (median survival time) (Ehrlich ascites; 6 mg/kg s.c. every 2 days × 5): 23.2 ± 1.8 days
ILS (increased life span) (Ehrlich ascites; 9 mg/kg s.c. every 2 days × 5): 58.1%
MST (median survival time) (Ehrlich ascites; 9 mg/kg s.c. every 2 days × 5): 27.2 ± 2.2 days
ILS (increased life span) (Ehrlich ascites; 12 mg/kg s.c. every 2 days × 5): 64.0%
MST (median survival time) (Ehrlich ascites; 12 mg/kg s.c. every 2 days × 5): 28.2 ± 2.9 days
Maximum ILS (Ehrlich ascites; against Ehrlich, s.c., q2d×5): +61%
Toxic Deaths (Ehrlich ascites; mouse, in vivo): 0/10
Increased life span (L1210 leukemia [2]; 0.1875 mg/kg i.p.): 3.0%
Median life span (L1210 leukemia [2]; 0.1875 mg/kg i.p.): 7.2 ± 0.6 days
Weight change (L1210 leukemia [2]; 0.1875 mg/kg i.p.): +10%
Increased life span (L1210 leukemia [2]; 0.375 mg/kg i.p.): 29.7%
Median life span (L1210 leukemia [2]; 0.375 mg/kg i.p.): 8.9 ± 1.0 days
Weight change (L1210 leukemia [2]; 0.375 mg/kg i.p.): +7%
Increased life span (L1210 leukemia [2]; 3.0 mg/kg i.p.): 164.8%
Median life span (L1210 leukemia [2]; 3.0 mg/kg i.p.): 13.0 ± 1.9 days
Weight change (L1210 leukemia [2]; 3.0 mg/kg i.p.): +5%
Toxicity (L1210 leukemia [2]; 6.0 mg/kg i.p.): slight toxicity
Increased life span (L1210 leukemia [2]; 6.0 mg/kg i.p.): 210.0%
Median life span (L1210 leukemia [2]; 6.0 mg/kg i.p.): 21.8 ± 1.5 days
Weight change (L1210 leukemia [2]; 6.0 mg/kg i.p.): -3%
life span of the test mice (L1210 leukemia [2]; i.p.): very considerably increased
antileukemic activity compared with methotrexate (L1210 leukemia [2]; on a similar dosage level, i.p.): superior to methotrexate

Nc1nc2ncc(CCc3ccc(C(=O)O)cc3)nc2c(=O)[nH]1 [10-deazapteroic acid]
growth-inhibitory activity (Streptococcus faecium): potent growth-inhibitory activity

CCC(Cc1cnc2nc(N)nc(N)c2n1)c1ccc(C(=O)N[C@@H](CCC(=O)O)C(=O)O)cc1 (stereo partly shown) [10-ethyl-10-deazaminopterin]
AST (L1210 leukemia [3]; 12 mg/kg i.p.): 18.3 ± 1.7 days
ILS (L1210 leukemia [3]; 12 mg/kg i.p.): +172%
AST (L1210 leukemia [3]; 18 mg/kg i.p.): 21.8 ± 1.4 days
ILS (L1210 leukemia [3]; 18 mg/kg i.p.): +220%
life span of the test mice (L1210 leukemia [3]; i.p.): very considerably increased
antileukemic activity compared with methotrexate (L1210 leukemia [3]; i.p.): superior to methotrexate

CC(Cc1cnc2nc(N)nc(N)c2n1)c1ccc(C(=O)N[C@@H](CCC(=O)O)C(=O)O)cc1 (stereo partly shown) [10-methyl-10-deazaminopterin, 10-Methyl-10-deazaminopterin]
AST (L1210 leukemia [3]; 12 mg/kg i.p.): 18.1 ± 1.9 days
ILS (L1210 leukemia [3]; 12 mg/kg i.p.): +170%
AST (L1210 leukemia [3]; 18 mg/kg i.p.): 22.2 ± 1.6 days
ILS (L1210 leukemia [3]; 18 mg/kg i.p.): +230%
life span of the test mice (L1210 leukemia [3]; i.p.): very considerably increased
Toxicity (L1210 leukemia [3]; maximum dose, about 22 mg/kg, i.p.): slight toxicity
antileukemic activity compared with methotrexate (L1210 leukemia [3]; i.p.): superior to methotrexate

CN(Cc1cnc2nc(N)nc(N)c2n1)c1ccc(C(=O)N[C@@H](CCC(=O)O)C(=O)O)cc1 [Methotrexate, reference compound]
LD50 (in vivo; ip or sc): 96 mg/kg
Plasma and tissue pharmacokinetics [1]: similar
MST (median survival time) (P815 ascites; 6 mg/kg s.c. every 2 days × 5): 15.4 ± 1.1 days
Toxic Deaths (P815 ascites; 6 mg/kg s.c. every 2 days × 5): 0/10
MST (median survival time) (P815 ascites; 9 mg/kg s.c. every 2 days × 5): 17.6 ± 1.6 days
Toxic Deaths (P815 ascites; 9 mg/kg s.c. every 2 days × 5): 0/10
MST (median survival time) (P815 ascites; 12 mg/kg s.c. every 2 days × 5): 18.4 ± 1.3 days
Toxic Deaths (P815 ascites; 12 mg/kg s.c. every 2 days × 5): 0/10
MST (median survival time) (Ehrlich ascites; 6 mg/kg s.c. every 2 days × 5): 19.8 ± 2.3 days
Toxic Deaths (Ehrlich ascites; 6 mg/kg s.c. every 2 days × 5): 0/10
MST (median survival time) (Ehrlich ascites; 9 mg/kg s.c. every 2 days × 5): 20.8 ± 3.0 days
Toxic Deaths (Ehrlich ascites; 9 mg/kg s.c. every 2 days × 5): 0/10
MST (median survival time) (Ehrlich ascites; 12 mg/kg s.c. every 2 days × 5): 20.2 ± 1.9 days
Toxic Deaths (Ehrlich ascites; 12 mg/kg s.c. every 2 days × 5): 0/10
dihydrofolic reductase inhibition (dihydrofolic reductase): powerful dihydrofolic reductase inhibitors
Weight change (L1210 leukemia [2]; 3.0 mg/kg i.p.): +8%
Toxicity (L1210 leukemia [2]; 6.0 mg/kg i.p.): Slight toxicity
Weight change (L1210 leukemia [2]; 6.0 mg/kg i.p.): +3%
